Reference: patent US20170188618A1, “STABLE EMULSIONS FROM DIPEPTIDE DERIVATIVES” (UNIVERSITY OF STRATHCLYDE, priority 2014, published 2017)
Values belong to the compound of their own block, whether it stands above or below them. Residues, ends and D or L forms follow the SMILES beside them. *: point of attachment. Fmoc = O=C(OCC1c2ccccc2-c2ccccc21)*

Experiments:
[1] = type: physicochemical
Procedure: To further increase the hydrophobicity, di- and tri-phenylalanine were tested as the peptide sequences (Fmoc-FF and Fmoc-FFF). […] Replacing the Fmoc group with pyrene, amphiphiles and the emulsion systems are inherently endowed with fluorescent properties. […] There is the clear expectation, based upon the results presented that it should be possible to change the peptide sequences and aromatic moieties to further to optimize and functionalize the emulsion systems.

[2] = Emulsion formation by aromatic peptide amphiphiles (fluorescence microscopy, FITC label); type: physicochemical; settings: chloroform / phosphate buffer pH 8; 10 mM peptide
Procedure: (§1) (the volume ratio of buffer solution to chloroform is altered from 1:9, 3:7, 5:5, 7:3, to 9:1, total volume was always 1 mL), after hand-shaking for 5 seconds emulsions form in vials. For SEM, IR, stability, average particle size, critical emulsion concentration and demulsification measurements, the volume ratio of buffer solution to chloroform was fixed at 7:3. The concentration of all aromatic peptide amphiphiles studied (Fmoc-YA, Fmoc-YS, Pyr-YL, Fmoc-FF and Fmoc-FFF) was 10 mM, except for in the determination of the critical emulsion concentration (0.1-10 mM) and demulsification measurements (2 mM).

[3] = Stability of chloroform-in-water emulsions (time, heat, salts) versus SDS; type: physicochemical; settings: 10 mM
Procedure: The top images show freshly prepared emulsions and the bottom images show emulsions incubated for 2 weeks. […] The top images show freshly prepared emulsions and the bottom images show emulsions heated at 60° C. for 3 hours. […] The top images show freshly prepared emulsions and the bottom images show emulsions incubated for 24 hours.
as §1

[4] = Partitioning of peptides between water, chloroform and the water/chloroform interface (UV-Vis); type: physicochemical; settings: water/chloroform biphasic system
Excerpt: (the volume ratio of buffer solution to chloroform is altered from 1:9, 3:7, 5:5, 7:3, to 9:1), after manual agitation for 5 seconds emulsions form in vials, as FIG. 2a shown. […] In the images shown, the milky layers are emulsions and the transparent layers above and below are the aqueous and chloroform phase, respectively. UV-Vis was used to determine the amount of Fmoc-YL that remained in water phase and transferred to chloroform. Fluorescein isothiocyanate (FITC) was used to label the aqueous phase in the emulsion layers for imaging by fluorescence microscopy.
High resolution mass spectra (HRMS) were recorded on a Thermo Electron Exactive. 400.1 (1H) NMR spectra were recorded on Brucker Avance 400 spectrometer at room temperature using perdeuterated solvents as internal standards. The emulsion droplets were characterized by fluorescence microscopy. The devices were mounted on an inverted microscope (AXIO Observer A1, Zeiss) and images were acquired using a EMCCD LucaR camera (Andor Technologies). Images (using brightfield and fluorescence microscopy) were acquired using Zeiss ×20 dry objective and the appropriate filter set for the fluorophore being imaged. Image was analyzed using ImageJ.

alkaline phosphatase = biological target: T1, alkaline phosphatase (Bos taurus, UniProt P19111); test: Dephosphorylation of Fmoc-YpL to Fmoc-YL by alkaline phosphatase (reversed phase HPLC); type: biochemical, bovine; settings: 10 mM, buffer pH 8
T1 construct: purchased Sigma Aldrich; host or cells: Pichia pastoris
T1 sequence (P19111 20-506): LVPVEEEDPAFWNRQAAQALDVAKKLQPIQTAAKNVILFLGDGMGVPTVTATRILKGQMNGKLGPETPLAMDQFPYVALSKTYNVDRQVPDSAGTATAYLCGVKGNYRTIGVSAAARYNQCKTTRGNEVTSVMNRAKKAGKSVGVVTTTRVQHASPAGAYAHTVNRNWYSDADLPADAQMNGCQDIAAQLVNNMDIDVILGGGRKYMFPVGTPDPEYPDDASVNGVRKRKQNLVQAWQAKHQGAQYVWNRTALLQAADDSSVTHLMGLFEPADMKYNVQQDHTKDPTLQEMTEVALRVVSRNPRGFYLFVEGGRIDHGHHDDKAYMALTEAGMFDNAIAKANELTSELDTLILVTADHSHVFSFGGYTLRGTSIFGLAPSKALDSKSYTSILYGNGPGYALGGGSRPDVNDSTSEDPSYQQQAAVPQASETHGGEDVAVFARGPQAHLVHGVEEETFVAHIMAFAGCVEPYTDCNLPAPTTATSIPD
Procedure: Enzymatic Conversion of Fmoc-YpL to Fmoc-YL.
Fmoc-Tyr(PO(NMe2)2-OH (537.55 g·mol^−1) was purchased from Novabiochem. Fmoc-Tyr-OH (403.43 g·mol^−1), L-Leucine tert-butyl hydrochloride (223.74 g·mol^−1) and alkaline phosphatase from bovine, expressed in Pichia pastoris (5000 U·mg^−1protein, 20 mgprotein·mL^−1, 0.049 mL, Apparent molar weight 160 kDa) were supplied by Sigma Aldrich. One enzyme unit corresponds to the quantity of alkaline phosphatase hydrolysing 1 μmol of 4-nitrophenyl phosphate per minute at pH 9.8 and 37° C.
10 mM of synthesised Fmoc-YpL was prepared in 950 μL of 0.6 M sodium phosphate buffer pH 8 and immediately added 50 μL of alkaline phosphatase (0.0555 U·μL^−1, or 55.53 U·mL^−1 enzymatic concentration), vortexed and subject to ultra sounds at room temperature. All characterisation was done after 24 hours except when stated otherwise. For the Fmoc-YpL precursor, the preparation was the same except no enzyme was added.

[5] = Gel formation in buffer solution and chloroform; type: physicochemical; settings: 10 mM in 0.6 M sodium phosphate buffer pH 8, no enzyme
thermolysin = biological target: T2, thermolysin (Bacillus thermoproteolyticus, UniProt P00800); test: Enzymatic demulsification of emulsions by thermolysin; type: biochemical
T2 sequence (P00800 233-548): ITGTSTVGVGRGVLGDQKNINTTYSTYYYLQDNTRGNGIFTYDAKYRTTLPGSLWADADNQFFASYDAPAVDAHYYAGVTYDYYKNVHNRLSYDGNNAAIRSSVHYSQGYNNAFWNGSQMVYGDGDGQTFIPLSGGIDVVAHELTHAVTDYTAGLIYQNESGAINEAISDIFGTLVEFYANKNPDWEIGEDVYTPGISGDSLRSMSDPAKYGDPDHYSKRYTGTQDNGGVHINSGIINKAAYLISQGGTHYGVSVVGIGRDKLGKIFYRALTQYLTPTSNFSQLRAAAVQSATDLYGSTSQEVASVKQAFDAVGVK
Excerpt: Scale bar is 50 μm. […] (c) Optical photographs of vials in which emulsions formed (left) and demulsified (right) in addition of thermolysin.
Another vital advantage of using peptide self-assembly to stabilize the emulsion systems is the ability to digest the stabilizing film using a suitable enzyme. Proteases, the enzymes that cleave peptide bonds cause disassembly of amphiphiles.
as §1

- solubility in chloroform [1]: do dissolve in chloroform
Compound: O=C(N[C@@H](Cc1ccccc1)C(=O)N[C@@H](Cc1ccccc1)C(=O)N[C@@H](Cc1ccccc1)C(=O)O)OCC1c2ccccc2-c2ccccc21 [Fmoc-FFF, Fmoc-Phe-Phe-Phe-OH] (Fmoc-Phe-Phe-Phe-OH)
- solubility in the water phase [1]: too hydrophobic to dissolve in the water phase
- type of emulsion formed [2]: formation of water-in-chloroform emulsions

- emulsion state after 24 h in salt solution ([3]; 100 mM phosphate, chloride and thiocyanate solution): phase-separated
- emulsion state after two weeks at room temperature ([3]; chloroform-in-water): demulsified and phase-separated
Compound: CCCCCCCCCCCCOS(=O)(=O)[O-].[Na+] [SDS, sodium dodecyl sulfate]

Compound: Fmoc-tyrosine phosphate-leucine [Fmoc-YpL]
- Remain in water (%) [4]: 31.03%
- Transfer to chloroform (%) [4]: 0.74%
- Transfer to interface (%) [4]: 68.23%
- time to complete conversion to Fmoc-YL (alkaline phosphatase): ≤ 24 h
- Fmoc-YpL converted into Fmoc-YL (alkaline phosphatase; after 2 hours): approximately 90%
- gel formation of precursor solution [5]: not able to form a gel

Compound: Fmoc-tyrosine-leucine [Fmoc-YL]
- time for droplets to demulsify and coalesce to bigger droplets after adding thermolysin (thermolysin; 1 mg·mL^−1 thermolysin, 2 mmol·L^−1 Fmoc-YL): 60 s
- conversion of cleaving reaction catalyzed by thermolysin (HPLC) (thermolysin; after 10 minutes, aqueous media): 50%
